Laboratory results from patent publication US20240358727A1, “MICROSCALE THERMOPHORESIS TO EVALUATE CHANNEL LIPID INTERACTIONS AND METHODS OF TREATING NAV CHANNELS RELATED DISEASES” (Northeastern University, priority 2023, published 2024).
Where “and” joins values, the source holds several entries; their conditions need not be identical. Equal entries are not always repeated. Entries after “also recorded” stand apart in the source; their conditions may differ.

Tests used:
Nav1.5 WT = target: T1, Nav1.5 WT (Homo sapiens, UniProt Q14524); assay: Microscale thermophoresis (MST) binding of diC8-PIP2 to GFP-tagged wild type Nav1.5 in cell lysate
T1 construct: expressed in transfected cells; host or cells: HEK293T cells, lysed; unpurified lysate supernatant used
Description: (§1) The method utilizes cell lysates obtained from transfected/infected cells that are lysed and incubated with varying concentrations of a water-soluble analogue of PIP2 commercially available as diC8-PI(4,5)P2, in a 384 well plate. Other phosphoinositides such as diC8PI(4)P of diC8PI(5)P can also be utilized. After a brief incubation (10-30 mins) samples are loaded onto capillary chips purchased from the company Nanotemper. Samples are run on the Nanotemper Monolith instrument. This instrument is advertised to detect green fluorescent protein (GFP) tagged proteins, however we have also used TFP (teal FP) tagged proteins. The instrument provides a short infra-red laser pulse which produces a short thermal gradient. Protein that is interacting with the lipid migrates differently through this thermal gradient and its movement is evaluated by the fluorescence of the GFP/TFP tag on the protein. Based on the concentration of the dic8-phosphoinositide, this resolves into a sigmoidal relationship that delivers an apparent affinity (Kd) value. A test ligand can be added to this assay at a known concentration that is at or close to its Kd for the channel. A shift in the channel's affinity for PIP2 in this assay can help indicate whether this test compound is a good drug candidate for further biological experiments.
Results. […]

Nav1.5-R1644C [1] = target: T2, Nav1.5-R1644C (Homo sapiens, UniProt Q14524, R1644C); assay: Whole-cell patch-clamp ILATE of Nav1.5-R1644C in HEK293T cells with CRY2-5POCRL; format: cell-based
T2 construct: expressed in transfected cells; host or cells: HEK293T
Description: This is opposed when by 200 μM diC8-PIP2 in the pipette. Comparisons are Students t-test, *** P<0.01, ****P0.001 for 4-6 cells per group.
Results. Our studies were designed to evaluate PIP2-regulation for Nav1.5 channelopathies from multiple perspectives. Given that there is a lack of structural data to identify where, or how many PIP2 molecules bind to Nav1.5, we performed a docking simulation to identify putative PIP2 binding sites in the open, rat and human Nav1.5 cryoEM structures (PDB: 6UZ3 and 7DTC) (56-58). We observed four potential PIP2 binding sites at the boundary between the inner leaflet of the membrane and the cytoplasm with one at the interface between each voltage sensor and the channel body. In each case, we noted electrostatic and hydrogen bond interactions between the headgroup of PIP2 and multiple disease associated residues. Among these, we elected to perform functional studies on Nav1.5-R1644C, an LQT3 mutant located between the S4 and S5 transmembrane segments of DIV. We expressed wild type Nav1.5 or Nav1.5-R1644C with Nav1β, CIBN-CAAX and CRY2-5POCRL in HEK293T cells and studied ILATE with and without optogenetic dephosphorylation of PIP2. In wild-type Nav1.5, ILATE was 0.25±0.1% of the peak (n=8) whereas in […], ILATE was 1.2±0.2% of peak (n=8, P<0.01, unpaired t-test comparison to WT). Dephosphorylation of PIP2 elevated ILATE in both channels to ˜4% of the peak but did so more rapidly for Nav1.5-R1644C. Thus, WT Nav1.5 ILATE plateaued after 180±15 s of optogenetic dephosphorylation compared to 86±22 s in Nav1.5-R1644C channels (n=8 for both experiments). […] Next, we used the Monolith Nanotemper system to establish a microscale thermophoresis (MST) approach to measure the binding affinity of PIP2 for Nav1.5 channels. MST measures the mobility of the GFP-tagged protein in response to an IR-laser pulse. Ligand binding alters the motion of the target protein, allowing the user to generate a binding curve and extracting a binding constant (Kd) (FIG. 6A). First, we studied GFP-Nav1.5 expressed in HEK293T cells along with Navβ1.
Next, aimed to test the hypothesis that the relationship of PIP2 with the channel in certain disease-associated variants is altered. We employed a variant of Nav1.5 identified in patients with Long QT Syndrome Type 3, Arg1644→C and assessed it sensitivity to the widely used 5P-OCRL construct. We observed a right shift in the G-V curve and an increase in the ILATE over WT conditions as well as a further increase following blue light induction of PIP2 dephosphorylation. We then used the patch pipette to enrich cells expressing these channels with diC8PI(4,5)P2. We observed that the enhanced ILATE observed under control conditions is mitigated by the inclusion of diC8PIP2 in patch pipette while the shift in the G-V is not rescued by the inclusion of diC8PI(4,5)P2 in the pipette.

Nav1.5-K1493E = target: T3, Nav1.5-K1493E (Homo sapiens, UniProt Q14524, K1493E); assay: Whole-cell ILATE of Nav1.5-K1493E with CRY2-5ptase; format: cell-based; conditions: 200 μM diC8-PI(4,5)P2 in pipette
T3 construct: expressed in transfected cells; HEK293T
Source text: FIGS. 31A-31D show representative currents from Nav1.5-K1493E showing enhanced ILATE that is further augmented by activation of CRY2-5ptase.
Multiple dysrhythmic disorders are associated with mutations in Nav1.5. Nav1.5-E1784K is the most common variant and is associated with LQT3, BrS, and sinus node dysfunction. E1784K is in the proximal C-terminal domain where it disrupts an interaction with K1493 (DIII-DIV linker) that alters channel gating and increases ILATE. The complementary mutation, K1493E also augments ILATE. […] These findings indicate a potential role for PI(4,5)P2 in the mechanism of, at least some, Nav1.5 disease mutants.

Nav1.5-R1644C [2] = target: T2, Nav1.5-R1644C; assay: MST binding of diC8-PIP2 to GFP-Nav1.5-R1644C in cell lysate; conditions: for affinity (Kd) of Nav1.5-R1644C relative to WT, fold lower: R1644C vs WT
Description: as §1
Results. Our studies were designed to evaluate PIP2-regulation for Nav1.5 channelopathies from multiple perspectives. Given that there is a lack of structural data to identify where, or how many PIP2 molecules bind to Nav1.5, we performed a docking simulation to identify putative PIP2 binding sites in the open, rat and human Nav1.5 cryoEM structures (PDB: 6UZ3 and 7DTC) (56-58). We observed four potential PIP2 binding sites at the boundary between the inner leaflet of the membrane and the cytoplasm with one at the interface between each voltage sensor and the channel body. In each case, we noted electrostatic and hydrogen bond interactions between the headgroup of PIP2 and multiple disease associated residues. […]

## CCCCCCCC(=O)OC[C@H](COP(=O)(O)O[C@@H]1[C@H](O)[C@H](O)[C@@H](OP(=O)(O)O)[C@H](OP(=O)(O)O)[C@H]1O)OC(=O)CCCCCCC [diC8-PIP2]
Nav1.5 WT
  Kd: 45 ± 10 nM
Nav1.5-R1644C [1]; 200 μM diC8-PIP2 in pipette
  effect on elevated baseline ILATE: ameliorated; also recorded: abolishing; also recorded: decreased
  effect on elevation in ILATE following optogenetic stimulation of CRY2-5POCRL: opposed
  effect on more rapid rise of ILATE on PIP2 dephosphorylation: opposed
Nav1.5-R1644C [1]; 200 μM diC8-PIP2 in pipette, listed as diC8PIP2
  effect on elevated baseline ILATE: mitigated
Nav1.5-R1644C [1]; 200 μM diC8-PIP2 in pipette, without diC8-PIP2 1.2±0.2
  ILATE: 0.46±0.1 % of peak INa
Nav1.5-R1644C [1]; diC8PI(4,5)P2 in pipette
  effect on right shift in the G-V: not rescued
Nav1.5-K1493E
  effect on Nav1.5-K1493E ILATE: abolishes; also recorded: opposes
  effect on further increase in ILATE on activation of CRY2-5ptase: precluded
Nav1.5-R1644C [2]; Kd of diC8-PIP2 for Nav1.5-R1644C, GFP-Nav1.5-R1644C, HEK293T lysate
  Kd: 345 nM and 445 nM
Nav1.5-R1644C [2]
  affinity (Kd) of Nav1.5-R1644C relative to WT, fold lower: ~8 fold and ~10 fold
Nav1.5-R1644C [2]; listed as diC8PI(4,5)P2
  affinity (Kd) of Nav1.5-R1644C relative to WT, fold lower: almost ten-fold lower
